Experimental data reported in patent US5688789A, “PCP receptor ligands and the use thereof” (State of Oregon, acting by and through the Oregon State …, priority 1995, dated 1997).

Columns and labels:
PCP receptor [1] = assay: PCP receptor binding against 3H-MK-801 (Example 5, Table 1); conditions: vs. 3H-MK-801; ± sem (n)
Protocol: The PCP receptor binding properties of various compounds of the invention against ^3 H-5-methyl-10,11-dihydro-5H-dibenzo[a,d]cycloheptene-5,10-imine (^3 H-MK-801) were determined.

[2] = test system: NMDA receptor-ion channel complex; assay: Whole-cell patch clamp: block of NMDA-induced currents on cultured rat hippocampal neurons (Example 6); type: cell-based; conditions: rat hippocampal neurons, compared with MK-801
Protocol: In the electrophysiological studies the compounds are evaluated with respect to their ability to block the ion channel of the NMDA receptor channel complex and thereby inhibit Ca^2+ and Na^+ ion flow into the nerve cell. Initially, the ion channels are opened by activating the NMDA receptor. Ion flow is determined by measuring the passage of electrical current, i.e., a use-dependent decrease in electrical current indicates blocking of the ion channel due to binding of a ligand at a site within the channel.
Hippocampal neurons were obtained from the CA1 region of the hippocampus from 1-3 day-old-newborn rats (Long-Evans). Small blocks of tissue ([…]1mm^3) were incubated in papain (20 units ml^-1; Worthington-Cooper) for 30 minutes. The tissue was dissociated into a single cell suspension by trituration with a fire-polished Pasteur pipette in complete growth medium (Earle's MEM, 20 mM glucose, 50 units/ml penicillin/streptomycin, 5% heat-inactivated fetal calf serum, Serum Extender from Collaborative Research) containing 2.5 mg/ml bovine serum albumin and 2.5 mg/ml trypsin inhibitor (Sigma). The cells were plated onto glass coverslips coated with collagen/poly-D-lysine. Cultures were fed every 3 days by replacing haft the volume of medium. Arabinosylcytosine (5×10^-6 M) was added to the cultures for 1 or 2 days during the first week after plating to suppress the proliferation of non-neuronal cells.
All electrophysiology experiments were performed with the whole-cell mode of patch clamp recording [Hamill, O. D., Marty, A., Neher, E., Sakman, B., and Sigworth, F. J., Pflugers Arch. 391:85-100 (1981)] from neurons grown for 1-3 weeks in culture. Agonists and agonist/antagonist combinations were applied by a U-tube mol (Fenwick et al, J. Physiol. 331:577-597 (1982)) to neurons in whole-cell experiments. The external solution contained (in mM) NaCl 140, KCl 3.5, CaCl2 1, glucose 5, picrotoxinin 0.02, tetrodotoxin (TTX) 5×10^-4, and N-2-hydroxyethyl-piperazine-N'-2-ethanesulfonic acid (HEPES) 10. The pH of this solution was adjusted to 7.4 with NaOH. The internal (patch electrode) solution contained (mM) Cs-methanesulfonate 120, CsCl 10, ethyleneglycol-bis-(β-aminoethylether)-N,N,N',N'-tetraacetic acid (EGTA) 10, HEPES 10 (pH adjusted to 7.0 with CsOH). Membrane current was filtered at 4000 Hz (-3dB; 8-pole Bessel) and recorded on magnetic tape for later analysis. Experiments were performed at room temperature (20°-25° C.). [Sources of chemicals: N-methyl-D-aspartate, Cambridge Research Biochemicals; pirotoxinin, Sigma Chemical Company; salts for recording solutions, Aldrich (Gold Label) or Alfa (Puratronic). [^3 H]Kainate and [3H]CPP and [^3 H]AMPA were purchased from Dupont/NEN (Boston, Mass.)].
Repetitive applications (every 30 s) to the same cell produced currents which varied less than 5% over a period of at least 30 minutes.

rat hippocampal cells = assay: In vitro neurotoxicity assay: protection against glutamate, Trypan Blue survival count (Example 7); type: cell-based; conditions: 5 uM, glutamate 0-1000 uM, 1 uM glycine
Protocol: In the cytotoxicity studies, cultured mammalian neurons expressing EAA receptors are exposed in vitro to glutamate and the particular compound under investigation. The survival percentage of cells indicates the ability of the compound to protect against glutamate-induced neuronal death.
Dissociated rat hippocampal cultures were prepared using a modification of the method of Huettner and Baughman [Huettner, J. E. and Baugham, R. W., J. Neurosci. 6:3044-3060 (1986)]. The cortices were removed from 1-3 day post-natal rats (Sprague-Dawley) that had been anesthetized with chloral hydrate, and the hippocampi were dissected out and placed in Cl^- free dissociation medium supplemented with 1 mM kynurenic acid and 10 mM MgSO4 (Choi, D. W., J. Neurosci. 7:369-379 (1987)). The hippocampi were washed in the dissociation medium, then incubated for 2×20 minutes at 37° C. in dissociation medium containing 10 units/ml of Papain (Worthington). After the enzyme treatment, the tissue was incubated for three 5-minute periods at 37° C. with 10 mg/ml trypsin inhibitor (Sigma type II-0).
The cells were dissociated by trituration in growth medium and plated as 0.15 ml droplets of cell suspension onto the center of 35 mm Primaria (Falcon) dishes that had been stamped with a labeled 26×26 grid of approximately 0.64 cm^2 total area using a Mecanex BB form (WPI, New Haven, Conn.) and coated with poly-D-lysine and laminin (Collaborative Research). The cell density was between 2.5 and 4.0×10^5 cells per dish. The growth medium was Eagles minimum essential media (MEM, Earle's salts) supplemented with 5% fetal bovine serum (CCL), 5% defined supplemented calf serum (HyClone), 50 mM glucose, 50 units/ml penicillin/streptomycin and MITO+serum extender (Collaborative Research). The cells were maintained at 37° C. in a humidified 4.5% CO2 atmosphere. […]
Before treatment, sister cultures were examined under phase-contrast microscopy to ensure that the cultures were of a similar density. […] The cultures were washed three times and the surviving cells counted in the grid area using phase contrast microscopy. […]

[3] = test system: lesions caused by NMDA injection; assay: In vivo neurotoxicity assay: protection against lesions caused by cerebral NMDA injection (Example 8); conditions: about 0.30 to 60 μMol/kg, intraperitoneal, 15 minutes following cerebral NMDA injection
Excerpt: In the in vivo neurotoxicity studies, the experimental model of McDonald, D. W., et al., (In: Sigma and Phencyclidine-like Compounds as Molecular Probes in Biology, Ed. Domino, E. F., and Kamenka, J.-M., pp. 697-707 (1988), NPP Books, Ann Arbor, Mich.) may be employed. In this model, NMDA injection into one cerebral hemisphere causes injury which resembles the lesion produced by hypoxia-ischemia. The ability of compounds to limit the NMDA-induced lesion is a measure of their neuroprotective properties; since the compounds may be administered intraperitoneally, the model can also provide information about a compound's ability to cross the blood-brain barrier.
The experimental model of McDonald, J. W., et al., supra, was employed with the single alteration in protocol of an intraperitoneal injection of the test compound 15 minutes following, rather than preceding, the cerebral NMDA injection.

PCP receptor [4] = assay: PCP receptor affinity of IDDC analogs vs. [3H]MK-801 in rat brain membrane (Example 10, Table 2); conditions: read-out: PCP Receptor Affinity IC50 in Rat Brain Membrane vs. [3H]MK-801, MEAN

Row | Compound | IC50 (PCP receptor [1]) | use-dependent blockage of NMDA-induced (+glycine) responses [2] | cell survival compared to control (rat hippocampal cells) | protection against lesions caused by NMDA injection [3] | IC50 (PCP receptor [4])
1 | c1ccc2c(c1)C[C@H]1NC[C@@H]2c2ccccc21 [(+)-IDDC, (+)-10(R),5(S)-(iminomethano)-10,11-dihydro-5H-dibenzo[a,d]cycloheptene] | 40 ± 5 nM | very similar to the use dependent blocking action exhibited by MK-801 | enhanced cell survival when compared to control values | protect against the lesions caused by NMDA injection | 40 nM
2 | c1ccc2c(c1)CC1NCC2c2ccccc21 (racemic) [(±)-IDDC, (±) 10,5-(iminomethano)-10,11-dihydro-5H-dibenzo[a,d]cycloheptene] | 41 ± 6 nM | – | enhanced cell survival when compared to control values | – | 74.6 nM
